{
  "source": "ChEMBL document CHEMBL1201862",
  "about": "“PubChem BioAssay data set” (2004)",
  "note": "The source made the active and inactive calls. Rule as the data show it, for most assays here: actives have a measured EC50 and inactives only a lower limit.",
  "data": [
    {"system": "not listed separately", "assay": "Luminescence Cell-Based Dose Response HTS to Identify Inhibitors of 5'UTR Stem-Loop Driven Prion Protein mRNA Translation in H4 Neuroglioblastoma Cells. [Related pubchem assays: 1827 (Project Summary), 1813 (Primary HTS)]", "assay_type": "functional", "conditions": "not given", "values": [
      {"compound": "Cc1ccc(-n2nnnc2SCCNS(=O)(=O)c2ccccc2)cc1C", "EC50": "20.5 µM (active)"}
    ]},
    {"target": "Luciferin 4-monooxygenase (Photinus pyralis, UniProt P08659)", "sequence (P08659 whole entry)": "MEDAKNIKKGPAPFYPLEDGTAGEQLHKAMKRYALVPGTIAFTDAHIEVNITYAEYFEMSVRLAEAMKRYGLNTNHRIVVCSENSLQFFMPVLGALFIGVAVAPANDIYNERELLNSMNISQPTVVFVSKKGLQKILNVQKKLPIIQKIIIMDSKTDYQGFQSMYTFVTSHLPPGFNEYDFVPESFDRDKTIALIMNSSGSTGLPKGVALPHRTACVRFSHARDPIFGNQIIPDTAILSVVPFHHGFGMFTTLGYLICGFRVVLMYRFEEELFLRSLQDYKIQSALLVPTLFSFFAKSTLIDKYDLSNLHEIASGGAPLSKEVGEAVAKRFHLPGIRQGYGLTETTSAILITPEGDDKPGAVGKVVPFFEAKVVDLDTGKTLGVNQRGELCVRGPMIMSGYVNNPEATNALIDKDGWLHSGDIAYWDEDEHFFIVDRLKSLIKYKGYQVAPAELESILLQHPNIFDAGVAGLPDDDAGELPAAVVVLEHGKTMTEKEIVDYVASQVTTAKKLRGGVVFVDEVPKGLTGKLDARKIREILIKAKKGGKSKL", "assay": "inhibition of purified Photinus pyralis luciferase – biochemical, luminescence, dose response (AID 1891)", "conditions": "not given", "values": [
      {"compound": "COCCNC(=O)/C(C#N)=C/c1ccc(O)cc1", "EC50": "4.8 µM (active)"},
      {"compound": "CSc1ccc(/C=N/NC(=O)c2ccc(O)cc2)cc1", "EC50": "1.57 µM (active)"},
      {"compound": "CC(C)Oc1ccc(N2CC(C(=O)Nc3ccc(N4CCOCC4)cc3)CC2=O)cc1", "note": "(centres undefined)", "EC50": "> 112 µM (not active)"},
      {"compound": "CCn1c2ccccc2c2cc(NC(=O)CSc3nnc(-c4cccc(Cl)c4)o3)ccc21", "EC50": "> 112 µM (not active)"},
      {"compound": "CN1CCC(NC(=O)Nc2cccc(C(F)(F)F)c2)CC1", "EC50": "> 112 µM (not active)"},
      {"compound": "Cc1c(Cl)ccc2sc(NC(=O)C3CC3)nc12", "EC50": "> 112 µM (not active)"},
      {"compound": "Cc1[nH]cnc1C(=O)N/N=C/c1c(Cl)cccc1Cl", "EC50": "4.22 µM (active)"},
      {"compound": "CC(=O)Nc1ccc2nc(NC(=O)c3cccs3)sc2c1", "EC50": "2.26 µM (active)"}
    ]},
    {"target": "FAD-linked sulfhydryl oxidase ALR (Homo sapiens, UniProt P55789)", "sequence (P55789 whole entry)": "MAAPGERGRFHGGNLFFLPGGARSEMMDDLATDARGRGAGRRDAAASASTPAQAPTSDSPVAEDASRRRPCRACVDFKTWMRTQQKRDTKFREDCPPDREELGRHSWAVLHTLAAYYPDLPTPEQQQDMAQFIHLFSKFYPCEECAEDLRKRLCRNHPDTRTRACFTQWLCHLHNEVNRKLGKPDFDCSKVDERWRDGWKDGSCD", "assay": "ALR-catalysed DTT oxidation blockers – biochemical, H2O2 detection, luminescence, cherry-pick, dose response (AID 493248)", "conditions": "not given", "values": [
      {"compound": "COc1cc(OC)cc(C(=O)Nc2ccc(S(=O)(=O)Nc3cc(C)nc(C)n3)cc2)c1", "AC50": "1.68 µM (active)"},
      {"compound": "Cc1c(C(=O)N(C)C)c2cc(Cl)ccc2n1O", "AC50": "0.722 µM (active)"},
      {"compound": "COc1ccc(N2CCN(C(=O)CCNC(=O)c3ccc(C(C)(C)C)cc3)CC2)cc1", "AC50": "10.1 µM (active)"},
      {"compound": "Cc1cc2c(cc(C(=O)O)n2C)s1", "AC50": "30.9 µM (active)"},
      {"compound": "Cc1ccc(-c2cn3c(n2)SCC3)cc1", "AC50": "0.513 µM (active)"}
    ]},
    {"system": "not listed separately", "assay": "Luminescence Cell-Based Dose Confirmation HTS to Identify Inhibitors of Platelet Dense Granule Release. [Related pubchem assays: 1663 (Primary HTS), 1678 (Summary of Project)]", "assay_type": "functional", "conditions": "not given", "values": [
      {"compound": "COCCNC(=O)/C(C#N)=C/c1ccc(O)cc1", "EC50": "1.62 µM (active)"},
      {"compound": "CSc1ccc(/C=N/NC(=O)c2ccc(O)cc2)cc1", "EC50": "13.9 µM (active)"},
      {"compound": "CC(C)Oc1ccc(N2CC(C(=O)Nc3ccc(N4CCOCC4)cc3)CC2=O)cc1", "note": "(centres undefined)", "EC50": "> 112 µM (not active)"},
      {"compound": "CCn1c2ccccc2c2cc(NC(=O)CSc3nnc(-c4cccc(Cl)c4)o3)ccc21", "EC50": "> 112 µM (not active)"},
      {"compound": "CN1CCC(NC(=O)Nc2cccc(C(F)(F)F)c2)CC1", "EC50": "> 112 µM (not active)"},
      {"compound": "Cc1c(Cl)ccc2sc(NC(=O)C3CC3)nc12", "EC50": "> 112 µM (not active)"},
      {"compound": "Cc1[nH]cnc1C(=O)N/N=C/c1c(Cl)cccc1Cl", "EC50": "1.54 µM (active)"},
      {"compound": "CC(=O)Nc1ccc2nc(NC(=O)c3cccs3)sc2c1", "EC50": "6.27 µM (active)"}
    ]},
    {"system": "not listed separately", "assay": "alpha-synuclein stem-loop luciferase translation blockers – H4 neuroglioma cells, luminescence, confirmation (AID 1988)", "assay_type": "functional, cell-based", "conditions": "not given", "values": [
      {"compound": "Cc1ccc(-n2nnnc2SCCNS(=O)(=O)c2ccccc2)cc1C", "EC50": "> 120 µM (not active)"}
    ]},
    {"system": "not listed separately", "assay": "luciferase reporter signal suppression in cells – H4 neuroglioma cells, luminescence, dose response (AID 1990)", "assay_type": "functional, cell-based", "conditions": "not given", "values": [
      {"compound": "Cc1ccc(-n2nnnc2SCCNS(=O)(=O)c2ccccc2)cc1C", "EC50": "> 120 µM (not active)"}
    ]},
    {"target": "T1, Corticotropin-releasing factor receptor 2/Corticotropin-releasing factor-binding protein (Homo sapiens, UniProt P24387+Q13324)", "T1 sequence (Q13324 whole entry)": "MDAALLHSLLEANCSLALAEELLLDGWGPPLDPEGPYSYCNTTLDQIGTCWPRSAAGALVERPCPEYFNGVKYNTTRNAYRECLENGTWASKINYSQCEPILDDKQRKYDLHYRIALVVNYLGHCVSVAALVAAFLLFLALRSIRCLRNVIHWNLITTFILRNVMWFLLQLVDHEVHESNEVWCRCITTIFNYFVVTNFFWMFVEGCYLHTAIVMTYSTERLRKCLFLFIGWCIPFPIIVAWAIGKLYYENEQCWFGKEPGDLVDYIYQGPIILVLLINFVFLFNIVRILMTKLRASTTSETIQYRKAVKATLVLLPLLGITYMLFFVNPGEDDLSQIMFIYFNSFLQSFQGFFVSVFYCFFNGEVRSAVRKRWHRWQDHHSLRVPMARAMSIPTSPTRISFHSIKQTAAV", "T1 sequence (P24387 whole entry)": "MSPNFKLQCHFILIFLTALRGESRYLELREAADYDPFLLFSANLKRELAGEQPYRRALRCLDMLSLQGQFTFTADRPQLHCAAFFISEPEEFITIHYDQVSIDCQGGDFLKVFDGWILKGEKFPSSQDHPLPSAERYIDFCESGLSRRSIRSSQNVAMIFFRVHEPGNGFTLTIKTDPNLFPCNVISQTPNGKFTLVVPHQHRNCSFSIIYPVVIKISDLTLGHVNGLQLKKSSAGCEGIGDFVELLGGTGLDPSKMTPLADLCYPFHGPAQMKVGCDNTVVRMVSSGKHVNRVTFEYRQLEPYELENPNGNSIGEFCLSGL", "assay": "activators of CRF receptor 2 with binding protein – uHTS hits, confirmation (AID 602473)", "assay_type": "functional", "conditions": "read-out: EC50_Mean", "values": [
      {"compound": "CC(=O)N1N=C2C3CCN(CC3)C2C1c1cccc2ccccc12", "note": "(centres undefined)", "EC50": "> 53 µM (inactive)"},
      {"compound": "COc1cc(/C=C(\\C#N)C(=O)NCCc2ccccc2)cc(OC)c1O", "EC50": "> 53 µM (inactive)"}
    ]},
    {"target": "Cytochrome P450 3A4 (Homo sapiens, UniProt P08684)", "sequence (P08684 whole entry)": "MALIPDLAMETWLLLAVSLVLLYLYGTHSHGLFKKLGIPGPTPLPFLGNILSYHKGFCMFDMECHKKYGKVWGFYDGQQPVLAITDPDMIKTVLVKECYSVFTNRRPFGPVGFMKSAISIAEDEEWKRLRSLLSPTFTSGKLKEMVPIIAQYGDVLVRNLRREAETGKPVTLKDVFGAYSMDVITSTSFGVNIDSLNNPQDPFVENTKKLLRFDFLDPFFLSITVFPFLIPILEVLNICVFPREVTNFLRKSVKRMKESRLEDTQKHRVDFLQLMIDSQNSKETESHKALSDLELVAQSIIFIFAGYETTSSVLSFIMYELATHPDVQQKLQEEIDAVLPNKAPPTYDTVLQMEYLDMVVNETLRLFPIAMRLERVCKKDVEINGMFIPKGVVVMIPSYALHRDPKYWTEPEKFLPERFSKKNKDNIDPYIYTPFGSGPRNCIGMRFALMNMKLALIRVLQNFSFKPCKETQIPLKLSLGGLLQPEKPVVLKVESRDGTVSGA", "conditions": "not given", "values": [
      {"compound": "C[C@@H](Cc1ccccc1)Nc1ncnc2c1ncn2[C@@H]1O[C@@H](CO)[C@H](O)[C@@H]1O", "AC50": "10 µM (inconclusive)"},
      {"compound": "COC(=O)[C@H](N)Cc1ccc(Cl)cc1", "AC50": "31.6 µM (inconclusive)"},
      {"compound": "O=C(O)c1nc2nc(Cl)c(Cl)nc2[nH]1", "AC50": "3.16 µM (inconclusive)"}
    ]}
  ]
}
